Measurements published in US20240208997A1, “CYCLIC BENZIMIDAZOLE DERIVATIVES AS CGAS INHIBITORS” (Boehringer Ingelheim International GmbH, priority 2022, published 2024).
Like-named read-outs stand apart in the source and are kept apart here.

What was measured:
[1] = system: IFN induction in virus-stimulated THP1 cells; settings: Table 4; compounds of PCT/EP2022/062480 and PCT/EP2022/062496 and their methyl ester prodrugs; read-out: THP1(vir) IC50; cited from earlier work
[2] = system: IFN induction in cGAMP-stimulated THP1 cells; settings: Table 4; compounds of PCT/EP2022/062480 and PCT/EP2022/062496 and their methyl ester prodrugs; cited from earlier work
[3] = system: IFN induction in dsDNA-stimulated human whole blood; settings: Table 4; compounds of PCT/EP2022/062480 and PCT/EP2022/062496 and their methyl ester prodrugs; read-out: hWB IC50; cited from earlier work
cGAS [4] = biological target: T1, cGAS (Homo sapiens, UniProt Q8N884); set-up: HumancGAS (amino acid 1-522) with an N-terminal 6×-His-tag and SUMO-tag; 6xHis (N); SUMO (N); made in house; host or cells: E. coli BL21(DE3) pLysS; settings: Table 4; compounds of PCT/EP2022/062480 and PCT/EP2022/062496 and their methyl ester prodrugs; read-out: hcGAS IC50; cited from earlier work
T1 sequence (Q8N884 whole entry): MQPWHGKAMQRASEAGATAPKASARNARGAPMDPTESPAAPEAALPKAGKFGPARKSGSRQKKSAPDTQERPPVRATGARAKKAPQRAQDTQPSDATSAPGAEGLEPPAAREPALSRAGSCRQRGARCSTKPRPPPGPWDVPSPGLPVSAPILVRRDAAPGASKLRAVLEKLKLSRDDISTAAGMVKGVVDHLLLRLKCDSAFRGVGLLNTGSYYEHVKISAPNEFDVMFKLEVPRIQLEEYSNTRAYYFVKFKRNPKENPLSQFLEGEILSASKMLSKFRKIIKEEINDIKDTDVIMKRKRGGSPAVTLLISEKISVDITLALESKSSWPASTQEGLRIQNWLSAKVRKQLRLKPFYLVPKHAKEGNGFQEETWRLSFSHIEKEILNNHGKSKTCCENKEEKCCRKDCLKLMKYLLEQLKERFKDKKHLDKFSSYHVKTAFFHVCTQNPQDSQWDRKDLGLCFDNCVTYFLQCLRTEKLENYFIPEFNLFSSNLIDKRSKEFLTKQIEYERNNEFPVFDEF

[5] = system: IFN induction in cGAMP-stimulated THP1 cells; experiment: cGAMP stimulated counter cell assay in THP1-Dual cells (THP1(cGAMP) IC50); format: cell-based, human; settings: Homo sapiens, read-out: THP1(cGAMP) IC50
From the text: (§1) 6.2 Method: Human cGAS Cell Assay and cGAMP Stimulated Counter Cell Assay (THP1(vir) IC50 and THP1(cGAMP) IC50)
For the counter assay, cells were stimulated by cGAMP (SigmaAldrich #SML1232) to activate the identical pathway independent and directly downstream of cGAS (measurement of THP1(cGAMP) IC50).
(§2) Pathway activity was monitored by measuring the Lucia luciferase activity induced by either DNA stimulated cGAS enzyme activity (measurement of THP1(vir) IC50) or by cGAMP directly (measurement of THP1(cGAMP) IC50, counter assay).
(§3) Compounds were delivered in 10 mM DMSO solution, serially diluted and transferred to the 384 well assay plate (Greiner #781201) using an Echo acoustic dispenser. Typically, 8 concentrations were used with the highest concentration at 10 μM in the final assay volume followed by ^˜1:5 dilution steps. DMSO concentration was set to 1% in the final assay volume. The 384 well assay plate contained […] (column 1-22), and DMSO in column 23 and 24.
(§4) Cells, cultivated according to manufacturer conditions, were harvested by centrifugation at 300 g/10 min and were then resuspended and diluted to 1.66E5 cells/ml in fresh cell culture medium (RPMI 1640 (Gibco #A10491-01), 10% FCS (Gibco #10500), 1× GlutaMax (Gibco #35050-061), 1× Pen/Strep solution (Gibco #15140-122), 100 μg/ml Normocin (InvivoGen #ant-nr), 100 μg/ml Zeocin (InvivoGen #ant-zn), 10 μg/ml Blasticidin S (Life Technologies #A11139-03)). The baculovirus solution was then added 1:200 (have varied according to virus batch) to the cells (measurement of THP1(vir) IC50).
(§5) 30 μL of the cell/virus-mix were added to each well of the compound plate from column 1-23 via MultiDrop Combi dispenser (5000 cells/well). In column 24, 30 μl/5000 cells/well without virus were added as a low control.
(§6) The plates were then incubated for 18 h at 37° C. in a humidified incubator.
(§7) Following that, 15 μL of QuantiLuc detection reagent (InvivoGen #rep-qlcg5) were added to each well using a MultiDrop Combi. Measurement was done immediately after the addition using an EnVision reader (US-luminescence read-mode).
(§8) Data Evaluation and Calculation:
(§9) For data evaluation and calculation, the measurement of the low control was set as 0% control and the measurement of the high control was set as 100% control. The IC50 values were calculated using the standard 4 parameter logistic regression formula. Calculation: [y=(a−d)/(1+(x/c)^b)+d], a=low value, d=high value; x=conc M; c=IC50 M; b=slope

[6] = system: IFN induction in virus-stimulated THP1 cells; experiment: Human cGAS cell assay, virus-stimulated THP1-Dual cells (THP1(vir) IC50); format: cell-based
From the text: as §1
THP1-Dual™ cells (InvivoGen #thpd-nfis) expressing IRF dependent Lucia luciferase reporter were used as basis for both assays. For the detection of cellular cGAS activity cells were stimulated by a baculovirus (pFastbac-1, Invitrogen, no coding insert) infection that delivers the cGAS enzyme stimulating double-stranded DNA (measurement of THP1(vir) IC50).
as §2, §3, §4, §5, §6, §7, §8, §9

cGAS [7] = biological target: T1, cGAS; settings: page 65, Table 2 of WO 2022/174012; read-out: enzymatic IC50-value, group; cited from earlier work
THP-1 = settings: page 67 and 68, Table 3 of WO 2022/174012; read-out: cellular IC50-value (IFNβ ELISA stimulated with THP-1), group; cited from earlier work
cGAS [8] = biological target: T1, cGAS; settings: groups as on page 44/45 of WO 2020/142729; read-out: biochemical (in vitro) IC50-value, group; cited from earlier work
[9] = THP-1, Table 2, compounds of WO 2020/142729
[10] = THP-1, Table 2, compounds of WO 2020/142729, read-out: THP1(vir) IC50

Row | SMILES | IC50 [1] | IC50 [2] | IC50 [3] | further results
1 | C#Cc1cnc(O[C@H]2C[C@@H](C(=O)OC)N(c3nc(C(F)(F)F)nc4c3oc3ccccc34)C2)c(N2CCOC3(COC3)[C@@H]2C)c1 [P03 of PCT/EP2022/062 480] | 188 nM | 22.8 µM | 1090 nM | –
2 | COC(=O)[C@@H]1C[C@H](Oc2ncccc2N2CCOC3(COC3)[C@@H]2C)CN1c1nc(C(F)F)nc2c1oc1ccccc12 [P01 of PCT/EP2022/062 480] | 358 nM | 26.1 µM | 1310 nM | IC50 (cGAS [4]): > 9.96 µM
3 | C[C@@H]1N(c2cccnc2O[C@H]2C[C@@H](C(=O)O)N(c3nc(C(F)F)nc4c3oc3ccccc34)C2)CCOC12COC2 [Ex. 4.04 of PCT/EP2022/062 480] | 386 nM | > 16.6 µM | 77 nM | –
4 | Cc1nc(N2C[C@@H](CC(=O)Nc3ccc(-c4ccccc4)cc3)C[C@H]2C(=O)O)c2oc3ccccc3c2n1 [Compound 5, reference compound] | – | – | – | IC50 ([5]; THP-1, Table 3, Compound No. 5 of WO 2022/174012): > 10 µM; IC50 ([6]; THP-1, Table 3, Compound No. 5 of WO 2022/174012, read-out: THP1(vir) IC50): > 10 µM; IC50 (cGAS [7]): 50 to 100 nM; IC50 (THP-1): < 1000 nM
5 | C#Cc1cnc(O[C@H]2C[C@@H](C(=O)O)N(c3nc(C(F)(F)F)nc4c3oc3ccccc34)C2)c(N2CCOC3(COC3)[C@@H]2C)c1 [Ex. 1.12 of PCT/EP2022/062 480] | 7 nM | 11.9 µM | 15 nM | –
6 | Cc1nc(N2C[C@@H](Cc3nn[nH]n3)C[C@H]2C(=O)O)c2oc3ccccc3c2n1 [Example 25, reference compound] | – | – | – | IC50 [5, 9]: > 17 µM; IC50 [6, 10]: > 17 µM; IC50 ([6]; THP-1, running text, read-out: THP1(vir) IC50): 17 µM; IC50 (cGAS [8]): < 100 nM
7 | C#Cc1cnc(O[C@H]2C[C@@H](C(=O)OC)N(c3nc(C(F)(F)F)nc4c3oc3ccccc34)C2)c([C@@]2(F)CCS(=O)(=O)C[C@@H]2C)c1 [P01 of PCT/EP2022/062 496] | 11 nM | > 16.6 µM | 67 nM | –
8 | Cc1nc(N2CCC[C@H]2C(=O)O)c2oc3ccccc3c2n1 [Example 15, reference compound] | – | – | – | IC50 [5, 9]: > 17 µM; IC50 [6, 10]: > 17 µM
9 | COC(=O)[C@@H]1C[C@H](Oc2ncc(Cl)cc2[C@@]2(F)CCS(=O)(=O)C[C@@H]2C)CN1c1nc(C(F)F)nc2c1oc1ccccc12 [P02 of PCT/ EP2022/062496] | 29 nM | > 16.6 µM | 140 nM | IC50 (cGAS [4]): > 9.95 µM
10 | Cc1nc(N2C[C@@H](Nc3ccncc3)C[C@H]2C(=O)O)c2oc3ccccc3c2n1 [Example 38, reference compound] | – | – | – | IC50 [5, 9]: > 17 µM; IC50 [6, 10]: > 17 µM
11 | CC(C)(C(=O)N[C@H]1C[C@@H](C(=O)O)N(c2nc(C(F)(F)F)nc3c2oc2ccccc23)C1)c1cn[nH]c1 [Example 58, reference compound] | – | – | – | IC50 [6, 10]: 21 µM
12 | C[C@@H]1N(c2cc(Br)cnc2OC2C[C@@H](C(=O)O)N(c3nc(C(F)(F)F)nc4c3oc3ccccc34)C2)CCOC12COC2 (some centres unmarked) [Ex. 1.10 of PCT/EP2022/062 480] | 91 nM | 16.1 µM | 33 nM | IC50 (cGAS [4]): 0.005 µM
13 | CO[C@]1(c2cc(Cl)cnc2O[C@H]2C[C@@H](C(=O)O)N(c3nc(C(F)F)nc4c3oc3ccccc34)C2)CC(C)(C)S(=O)(=O)C[C@@H]1C [Ex. 1.05 of PCT/ EP2022/062496] | 44 nM | 13.2 µM | 135 nM | –
14 | COC(=O)[C@@H]1C[C@H](Oc2ncc(Cl)cc2[C@@]2(OC)CC(C)(C)S(=O)(=O)C[C@@H]2C)CN1c1nc(C(F)F)nc2c1oc1ccccc12 [P03 of PCT/ EP2022/062496] | 202 nM | 20.6 µM | 1990 nM | –
15 | C[C@H]1CS(=O)(=O)CC[C@]1(F)c1cc(Cl)cnc1O[C@H]1C[C@@H](C(=O)O)N(c2nc(C(F)F)nc3c2oc2ccccc23)C1 [Ex. 1.13 of PCT/ EP2022/062496] | – | 22.5 µM | 6 nM | –
16 | COC(=O)[C@@H]1C[C@H](Oc2ncc(Br)cc2N2CCOC3(COC3)[C@@H]2C)CN1c1nc(C(F)(F)F)nc2c1oc1ccccc12 [P02 of PCT/EP2022/062 480] | 444 nM | 17.1 µM | 5330 nM | IC50 (cGAS [4]): > 9.95 µM
17 | C#Cc1cnc(O[C@H]2C[C@@H](C(=O)O)N(c3nc(C(F)(F)F)nc4c3oc3ccccc34)C2)c([C@@]2(F)CCS(=O)(=O)C[C@@H]2C)c1 [Ex. 2.12 of PCT/ EP2022/062496] | – | 21.8 µM | 8 nM | –
18 | COc1ncccc1-c1cnc(O[C@H]2C[C@@H](C(=O)O)N(c3nc(C(F)(F)F)nc4c3oc3ccccc34)C2)c(N2CCOC3(COC3)[C@@H]2C)c1 [Ex. 3.14 of PCT/EP2022/062 480] | 10 nM | 7.83 µM | 26 nM | –
19 | COC(=O)[C@@H]1C[C@H](Oc2ncc(-c3cccnc3OC)cc2N2CCOC3(COC3)[C@@H]2C)CN1c1nc(C(F)(F)F)nc2c1oc1ccccc12 [P04 of PCT/EP2022/062 480] | 67 nM | > 16.6 µM | 2750 nM | IC50 (cGAS [4]): > 9.95 µM
20 | Cc1nc(N2C[C@@H](CC(=O)Nc3ccncc3)C[C@H]2C(=O)O)c2oc3ccccc3c2n1 [Example 28, reference compound] | – | – | – | IC50 [6, 10]: > 32 µM
